According to US9713651B2, “Compositions, methods, and systems for the synthesis and use of imaging agents” (Lantheus Medical Imaging, Inc., priority 2012, dated 2017):
Each block holds one molecule with its values, some of them ahead of it.

Experiments:
hepatocytes = assay: Metabolic profiling of imaging agents in cryopreserved hepatocytes (HPLC with radiodetection); type: in vitro ADME; settings: hepatocytes 1×10^6 cells/mL, 37° C./5% CO2; species and incubation time not given
Experimental: Cryopreserved hepatocytes were purchased from Celsis/In Vitro Technologies, Inc. (Baltimore, Md.) and stored at −150° C. prior to use. Multiple lots of hepatocytes for human (mixed sexes 5-donor pool), primate (male, rhesus monkey), dog (male, beagle), rabbit (male, New Zealand white) and rat (male, Sprague-Dawley) were used. On the day of the study, hepatocytes in cryopreserved vials were vented to release any liquid N2 then placed into a 37° C. water bath for 75-90 seconds to thaw. The hepatocytes were transferred into pre-warmed KHB and centrifuged for 5 min at 50×g. The supernatant was discarded and the hepatocytes re-suspended in KHB at a concentration of 1×10^6 cells/mL. Cell viability was confirmed by Trypan blue exclusion.
Test compounds were incubated in hepatocytes (1×10^6 cells/mL; 0.5 mL) were incubated for 0, 15, 30, 60 or 180 min at 37° C./5% CO2 then transferred directly into acetonitrile (1.0 mL), vortexed for 30 s and centrifuged at 2500×g for 20 min. The supernatant was then transferred to a new centrifuge tube, acetonitrile evaporated under a stream of nitrogen in a heating block at 37° C. and, following re-constitution in water, assayed by HPLC with radiodetection.
Extracted samples and standards were analyzed on an Agilent 1100 HPLC (Agilent Technologies, Burlington, Mass.) using a Phenomenex Luna C18 column (5μ; 4.6×150 mm), maintained at ambient temperature (25° C.), and a flow rate of 1.0 mL/min. Mobile phase A contained 0.1% formic acid in water, and mobile phase B contained 0.1% formic acid in acetonitrile. A linear gradient from 5 to 90% B over 15 min was used for elution. A 5 min post-time of 5% B was used to re-equilibrate the column. Radioactive products were recorded using in-line γ- or β-flow detectors (INUS, Tampa, Fla.).

[1] = Tissue distribution of 18F imaging agents in rats; type: in vivo, Male Sprague Dawley rats; settings: rat, iv tail vein ~15 μCi, ± SEM
Experimental: Anesthetized (sodium pentobarbital at 50 mg/kg, ip or isoflurane gas inhalation) Male Sprague Dawley rats (250-350 g) received an iv injection of the imaging agent (˜15 μCi) via the tail vein. At 15 or 60 min post injection, the animals were euthanized and the required tissue samples harvested. All samples were then weighed and counted for radioactivity (Wallac Wizard 1480 or Packard Cobra II Autogamma); regional tissue uptake of the imaging agent was thus expressed as a percentage of the total injected dose per gram of tissue (% ID/g).
The generic structure depicted below highlights specific structural features evaluated during distribution experiments.

Compound: CC(C)(C)n1ncc(OCc2ccc([Si](F)(C(C)(C)C)C(C)(C)C)cc2)c(Cl)c1=O [Example 62B, 2-(tert-butyl)-4-chloro-5-((4-(di-tert-butylfluorosilyl)benzyl)oxy)pyridazin-3 (2H)-one]
% Parent Remaining (hepatocytes): 98%

% Parent Remaining (hepatocytes): 20%
Compound: CC(C)n1ncc(OCc2ccc(COCCF)cc2)c(Cl)c1=O [Example 1, 4-chloro-5-((4-((2-fluoroethoxy)methyl)benzyl)oxy)-2-isopropylpyridazin-3(2H)-one]

% Parent Remaining (hepatocytes): 6%
Compound: CC(C)(C)n1ncc(CCc2ccc(COCCF)cc2)c(Cl)c1=O [Example 61]

% Parent Remaining (hepatocytes): 63%
Compound: CC(C)(C)n1ncc(OCc2ccc(C#CCCF)cc2)c(Cl)c1=O [Example 43, 2-(tert-butyl)-4-chloro-5-((4-(4-fluorobut-1-yn-1-yl)benzyl)oxy)pyridazin-3(2H)-one]

% Parent Remaining (hepatocytes): 30%
Compound: CC(C)(C)n1ncc(OCc2cccc(COCCF)c2)c(Cl)c1=O [Example 35, 2-(tert-butyl)-4-chloro-5-((3-((2-fluoroethoxy)methyl)benzyl)oxy)pyridazin-3(2H)-one]

% Parent Remaining (hepatocytes): 71%
Compound: CC(C)(C)n1ncc(OCc2ccc(OCCCF)c(Cl)c2)c(Cl)c1=O [Example 25, 2-(tert-butyl)-4-chloro-5-((3-chloro-4-(3-fluoropropoxyl)benzyl)oxy)pyridazin-3(2H)-one]

% Parent Remaining (hepatocytes): 31%
Compound: CC(C)(C)n1ncc(OCc2ccc(C(=O)OCCCF)cc2)c(Cl)c1=O [Example 57B, 3-fluoropropyl 4-(((1-(tert-butyl)-5-chloro-6-oxo-1,6-dihydropyridazin-4-yl)oxy)methyl)benzoate]

% Parent Remaining (hepatocytes): 95%
Compound: CC(C)(C)n1ncc(OCc2ccc(-c3cnc(F)nc3)cc2)c(Cl)c1=O [Example 48C, 2-(tert-butyl)-4-chloro-5-((4-(2-fluoropyrimidin-5-yl)benzyl)oxy)pyridazin-3(2H)-one]

% Parent Remaining (hepatocytes): 19%
Compound: CC(C)(C)n1ncc(OCc2ccc(C(=O)OCCF)cc2)c(Cl)c1=O [Example 45, 2-fluoroethyl 4-(((1-(tert-butyl)-5-chloro-6-oxo-1,6-dihydropyridazin-4-yl)oxy)methyl)benzoate]

% Parent Remaining (hepatocytes): 34%
Compound: Cc1c(OCc2ccc(COCCF)cc2)cnn(C(C)(C)C)c1=O [Example 40]

% Parent Remaining (hepatocytes): 20%
Compound: CC(OCCF)c1ccc(COc2cnn(C(C)(C)C)c(=O)c2Cl)cc1 (centres unmarked) [Example 16, 2-(tert-butyl)-4-chloro-5-((4-(1-(2-fluoroethoxyl)ethyl)benzyl)oxy)pyridazin-3(2H)-one]

Blood, imaging agent distribution at 15 min ([1]; 15 min post injection): 0.45 ± 0.02 % ID/g
Brain, imaging agent distribution at 15 min ([1]; 15 min post injection): 0.43 ± 0.05 % ID/g
Femur, imaging agent distribution at 15 min ([1]; 15 min post injection): 0.36 ± 0.04 % ID/g
Heart, imaging agent distribution at 15 min ([1]; 15 min post injection): 1.14 ± 0.09 % ID/g
Kidney, imaging agent distribution at 15 min ([1]; 15 min post injection): 0.78 ± 0.01 % ID/g
Liver, imaging agent distribution at 15 min ([1]; 15 min post injection): 0.46 ± 0.01 % ID/g
Lung, imaging agent distribution at 15 min ([1]; 15 min post injection): 0.41 ± 0.01 % ID/g
Muscle, imaging agent distribution at 15 min ([1]; 15 min post injection): 0.38 ± 0.02 % ID/g
Pancreas, imaging agent distribution at 15 min ([1]; 15 min post injection): 0.44 ± 0.03 % ID/g
Spleen, imaging agent distribution at 15 min ([1]; 15 min post injection): 0.34 ± 0.03 % ID/g
Blood, imaging agent distribution at 60 min ([1]; 60 min post injection): 0.55 ± 0.02 % ID/g
Brain, imaging agent distribution at 60 min ([1]; 60 min post injection): 0.43 ± 0.02 % ID/g
Femur, imaging agent distribution at 60 min ([1]; 60 min post injection): 0.71 ± 0.06 % ID/g
Heart, imaging agent distribution at 60 min ([1]; 60 min post injection): 0.55 ± 0.03 % ID/g
Kidney, imaging agent distribution at 60 min ([1]; 60 min post injection): 0.49 ± 0.03 % ID/g
Liver, imaging agent distribution at 60 min ([1]; 60 min post injection): 0.40 ± 0.02 % ID/g
Lung, imaging agent distribution at 60 min ([1]; 60 min post injection): 0.42 ± 0.01 % ID/g
Muscle, imaging agent distribution at 60 min ([1]; 60 min post injection): 0.31 ± 0.02 % ID/g
Pancreas, imaging agent distribution at 60 min ([1]; 60 min post injection): 0.32 ± 0.02 % ID/g
Spleen, imaging agent distribution at 60 min ([1]; 60 min post injection): 0.35 ± 0.02 % ID/g
Compound: CC(C)n1ncc(OCc2ccc(COCCF)cc2)c(Cl)c1=O [Example 67H]

% Parent Remaining (hepatocytes): 73%
Compound: [2H]C([2H])(OCCF)c1ccc(COc2cnn(C(C)(C)C)c(=O)c2Cl)cc1 [Example 9, 2-(tert-butyl)-4-chloro-5-((4-((2-fluoroethoxy)-d2-methyl)benzyl)oxy)pyridazin-3(2H)-one]
